One series concerns broiler chickens. The method, then: The crude methionine previously obtained in solid form is added to a basic feed for broiler chickens.
The basic feed has the following composition:
The animals are divided up into groups and fed with the basic feed as control, or with a feed supplemented with crude methionine according to the invention, and then weighed at 1 day, 14 days and 28 days.

Another series in a line: physchem. The text has this: The third step consists in crystallizing the methionine so as to recover the crude methionine in solid form. This crystallization step can be carried out by means of technology chosen from the group consisting of crystallization by cooling, crystallization by evaporation-crystallization and adiabatic crystallization. The applicant company recommends using evaporation-crystallization. If evaporation-crystallization is selected, the applicant company recommends pre-concentrating the crude methionine solution by vacuum evaporation using a falling-film evaporator in order to approach supersaturation. The pre-concentrated solution is therefore transferred into a crystallizer of Draft tube type, for example, so as to be further concentrated and crystallized therein. […] Under these conditions, and by virtue of the removal of the soluble impurities, the solid methionine crystallizes in the form of spongy spheres which are easy to separate from the mother liquors.

Converted amounts (≈) assume the structure as drawn.

Regarding `CSCCC(N)C(=O)O` (racemic) [DL-methionine of chemical origin, DL-methionine], the “optimum efficiency, added methionine” value with broiler chickens (added to basic feed) is reported as “approximately 0.19%”. Further, in the series with broiler chickens (basic feed has a methionine content of about 0.29%), the “optimum efficiency, methionine in the final feed” value was “approximately 0.48%”.

Compound `CSCC[C@H](N)C(=O)O` [methionine, L-Methionine] came in with a solubility in “physchem” (35 °C) of around 70 mg/mL (≈ 469 mM). In “physchem” (at 50° C.), the supersaturation was found to be 80 g/L.

Source of the values: patent publication US10440974B2, “Methionine-rich composition for feeding animals” (Evonik Degussa GmbH, priority 2009, dated 2019).
